Values after ≈ are worked out from the molar mass of the structure shown. Values joined by “and” are separate entries in the source; they are usually repeats but may differ in a detail not shown here. Equal entries are not always repeated. Where two headings read alike, the source gives them in different places. A value given as a limit tells only on which side of the number the result lay.

Data on four molecules can be found in US6143780A, “N-arylmethylthioanilide compounds useful for the inhibition of the replication of HIV” (Uniroyal Chemical Company, Inc., priority 1999, dated 2000).

In assay [1] the test system is HIV-1 strains containing the 100 Leu→Ile mutation in their RT. The conditions noted are these: cited from earlier work.
The test system of assay [2] is 181 Tyr→Cys mutation in the RT of HIV-1 strains. The conditions noted are these: cited from earlier work.
The next assay deals with HIV-1/190-Glu. Briefly: inhibition of syncytium formation in CEM cells, HIV-1 RT mutant 190-Glu. The assay is classed as cell-based. The conditions noted are these: Human immunodeficiency virus 1, CCRF-CEM, 96 h, read-out: EC50 190-Glu. The text has this:
(§1) CEM cells were obtained from the American Tissue Cell Culture Collection (Rockville, Md.) . HIV-1 (IIIB) was originally obtained from the culture supernatant of persistently HIV-1-infected H9 cells and was provided by R. C. Gallo and M. Popovic (National Cancer Institute, National Institutes of Health, Bethesda, Md.).
(§2) The selection and characterization of the HIV-1 RT mutant strains were done as follows: HIV-1/100-Ile ("100-Ile") was selected for resistance against TIBO R82150 as described in Balzarini et al, Virology 192: 246-253 (1993); HIV-1/103-Asn ("103-Asn") was selected for resistance against TIBO R82913 as described in Balzarini et al, Virology 192: 246-253 (1993); HIV-1/106-Ala ("106-Ala") was selected for resistance against nevirapine as described in Balzarini et al, J. Virol. 67: 5353-5359 (1993); HIV-1/Lys-138 ("Lys-138") was selected for resistance against TSAO-m^3T as described in Balzarini et al, Virology 192: 246-253 (1993) and Balzarini et al, Proc. Nat. Acad. Sci. USA 90: 6952-6956 (1993); HIV-1/181-Cys ("181-Cys") was selected for resistance against pyridinone L-697,661 as described in Balzarini et al, Virology 192: 246-253 (1993); and HIV-1/188-His ("188-His") was selected for resistance against HEPT as described in Balzarini et al, Mol. Pharmocol. 44: 694-701 (1993). 188-His was then further converted to HIV-1/188-Leu ("188-Leu") upon further passage in cell culture in the absence of the HEPT. HIV-1/101-Glu ("101-Glu") and HIV-1/190-Glu ("190-Glu") were selected for resistance against the thiocarboxanilide derivative designated as UC38 as described in Balzarini et al, Antiviral Research 27: 219-236 (1995). HIV-1/184-Ile ("184-Ile") was selected for resistance against the combination of 3TC and TSAO-m^3 T as described in Balzarini et al, Molecular Pharm. 49: 882-890 (1996). HIV-1/184-Val ("184-Val") was selected for resistance against 3TC as described in Balzarini et al, Molecular Pharm. 49: 882-890 (1996).
(§3) CEM cells were suspended at ≈300,000 cells per ml of culture medium and infected with approximately 100 CCID50 (CCID50 being the 50% cell culture infective dose) of HIV-1(IIIB) (designated as "WT" in Table 3) or one of the HIV-1 RT mutant strains described above. Then 100 μl of the infected cell suspensions was added to 200 μl microtiter plate wells containing 100 μl of appropriate serial (5-fold) dilutions of the test compounds. The inhibitiory effect of the test compounds on HIV-1 induced syncytium formation in CEM cells was examined microscopically on day 4 post infection. The 50% effective concentration (EC50) was defined as the test compound concentration that inhibits syncytium formation in the HIV-1-infected cell cultures by 50%.

Another assay has as its system HIV-1/106-Ala. Briefly: inhibition of syncytium formation in CEM cells, HIV-1 RT mutant 106-Ala. In kind it is cell-based. As to conditions: Human immunodeficiency virus 1, CCRF-CEM, 96 h, read-out: EC50 106-Ala.
Text: as §1, §2, §3

A further assay relates to HIV-1/188-Leu. Briefly: inhibition of syncytium formation in CEM cells, HIV-1 RT mutant 188-Leu. The assay is classed as cell-based. As to conditions: Human immunodeficiency virus 1, CCRF-CEM, 96 h, read-out: EC50 188-Leu.
Text: as §1, §2, §3

The test system of the next assay is HIV-1/100-Ile. Briefly: inhibition of syncytium formation in CEM cells, HIV-1 RT mutant 100-Ile. The assay is classed as cell-based. The conditions noted are these: Human immunodeficiency virus 1, CCRF-CEM, 96 h, read-out: EC50 100-Ile.
Text: as §1, §2, §3

The next assay concerns HIV-1 (IIIB). Briefly: inhibition of HIV-1(IIIB) (WT) induced syncytium formation in CEM cells. The assay is classed as cell-based. In a few lines:
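CEM cells (~300,000/ml) were infected with ~100 CCID50 of virus and exposed to serial 5-fold compound dilutions. Syncytium formation was scored microscopically on day 4 post infection; EC50 is the concentration inhibiting syncytium formation by 50%.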

In another assay the test system is HIV-1/188-His. Briefly: inhibition of syncytium formation in CEM cells, HIV-1 RT mutant 188-His. The assay is classed as cell-based. The conditions noted are these: Human immunodeficiency virus 1, CCRF-CEM, 96 h, read-out: EC50 188-His.
Text: as §1, §2, §3

For the next assay, the system named is HIV-1/101-Glu. Briefly: inhibition of syncytium formation in CEM cells, HIV-1 RT mutant 101-Glu. The conditions noted are these: Human immunodeficiency virus 1, CCRF-CEM, 96 h, read-out: EC50 101-Glu. The assay is classed as cell-based.
Text: as §1, §2, §3

The test system of a further assay is HIV-1/181-Cys. Briefly: inhibition of syncytium formation in CEM cells, HIV-1 RT mutant 181-Cys. In kind it is cell-based. The conditions noted are these: Human immunodeficiency virus 1, CCRF-CEM, 96 h, read-out: EC50 181-Cys.
Text: as §1, §2, §3

For the next assay, the system named is HIV-1/184-Ile. Briefly: inhibition of syncytium formation in CEM cells, HIV-1 RT mutant 184-Ile. In kind it is cell-based. The conditions noted are these: Human immunodeficiency virus 1, CCRF-CEM, 96 h, read-out: EC50 184-IIe.
Text: as §1, §2, §3

In the next assay the test system is 103-Ala. Briefly: inhibition of syncytium formation in CEM cells, HIV-1 RT mutant 103-Ala. The assay is classed as cell-based. The conditions noted are these: Human immunodeficiency virus 1, CCRF-CEM, 96 h, read-out: EC50 103-Ala.
Another assay has as its system HIV-1/184-Val. Briefly: inhibition of syncytium formation in CEM cells, HIV-1 RT mutant 184-Val. The assay is classed as cell-based. As to conditions: Human immunodeficiency virus 1, CCRF-CEM, 96 h, read-out: EC50 184-Val.
Text: as §1, §2, §3

A further assay concerns 138-Lys. Briefly: inhibition of syncytium formation in CEM cells, HIV-1 RT mutant 138-Lys. As to conditions: Human immunodeficiency virus 1, CCRF-CEM, 96 h, read-out: EC50 138-Lys. The assay is classed as cell-based.
Text: as §1, §2, §3

Regarding `CC(C)=CCN1Cc2cccc3[nH]c(=S)n(c23)CC1C` (single isomer, unassigned) [Compound R82150], the “resistance of 100 Leu→Ile mutant strains” value in assay [1] is listed as “resistant”.

On to `Cc1ccnc2c1NC(=O)c1cccnc1N2C1CC1` [nevirapine], for which the “resistance of 181 Tyr→Cys mutant strains” value in assay [2] is listed as “resistant”.

`CC(C)=CCN1Cc2cc(Cl)cc3[nH]c(=S)n(c23)CC1C` (single isomer, unassigned) [TIBO R82913]: in assay [1], the “resistance of 100 Leu→Ile mutant strains” value is recorded as “resistant”.

As for `COc1cccc(F)c1OCc1cc(NC(=S)c2ccoc2C)ccc1Cl` [Compound 34], the 50% effective concentration (EC50) (in general, the concentration giving half of the maximal effect) was greater than 2 µg/mL with HIV-1/190-Glu; 0.1 µg/mL in the assay on HIV-1/106-Ala; 0.53 µg/mL in the assay on HIV-1/188-Leu; 0.16 µg/mL with HIV-1/100-Ile; 0.0022 µg/mL with HIV-1 (IIIB) (Human immunodeficiency virus 1, IIIB, CCRF-CEM, 96 h, Table 3, HIV-1(IIIB), day 4 post infection, read-out: EC50 WT); 5.65 nM and 17.4 nM in the assay with HIV-1 (IIIB) (Table 2, day 4 post infection, replicate values, read-out: EC50, Activity Against HIV-1 (IIIB)). Besides, the EC50 in the assay with HIV-1/188-His is 0.5 µg/mL; with HIV-1/101-Glu, 0.12 µg/mL; in the assay on HIV-1/181-Cys, 0.1 µg/mL; with HIV-1/184-Ile, 0.0087 µg/mL; with 103-Ala, 0.85 µg/mL (≈ 2.09 µM); in the assay on HIV-1/184-Val it was 0.005 µg/mL. Further, in the assay on 138-Lys, the EC50 came to 0.02 µg/mL.
